Laboratory results taken from US9670227B2, “Thienopyrimidine derivatives, a process for their preparation and pharmaceutical compositions containing them” (LES LABORATOIRES SERVIER, priority 2013, dated 2017).

Biological target: Mcl-1 protein (UniProtKB primary accession number: Q07820) (Homo sapiens, UniProt Q07820)
Experiment: Inhibition of Mcl-1 by fluorescence polarisation, Method 1
Format: binding
Conditions: for IC50: fluorescence polarisation test, Method 2 values are underlined in the patent (underlining not visible here), read-out: IC50 (M) Mcl-1 FP; for percentage fluorescence polarisation inhibition (Mcl-1 FP), partial inhibitors: @ 10 uM test compound
How it was run: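 Fluorescence polarisation competition with an 11-point compound dilution series (final DMSO 5%). Mcl-1 protein at 5 nM and fluorescein-labelled ligand at 1 nM (final) in 10 mM HEPES, 150 mM NaCl, 0.05% Tween 20, pH 7.4.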

Mcl-1 protein, sequence (Q07820 whole entry): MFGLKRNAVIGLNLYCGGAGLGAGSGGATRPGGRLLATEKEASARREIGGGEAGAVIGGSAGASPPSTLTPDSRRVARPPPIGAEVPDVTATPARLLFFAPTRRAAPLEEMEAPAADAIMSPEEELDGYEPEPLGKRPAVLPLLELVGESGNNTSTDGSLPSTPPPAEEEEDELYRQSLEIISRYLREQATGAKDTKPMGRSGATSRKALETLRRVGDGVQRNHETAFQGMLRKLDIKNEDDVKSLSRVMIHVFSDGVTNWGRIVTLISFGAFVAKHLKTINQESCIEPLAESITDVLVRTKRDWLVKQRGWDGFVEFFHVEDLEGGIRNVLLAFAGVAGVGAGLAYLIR

Structure (SMILES) | IC50 | percentage fluorescence polarisation inhibition (Mcl-1 FP), partial inhibitors
COc1ccccc1CC(Oc1ncnc2sc(-c3ccco3)c(-c3ccc(OCCN4CC[N+](C)([O-])CC4)c(Cl)c3C)c12)C(=O)O [Example 296, (2R)-2-{[(5Sa)-5-{3-chloro-2-methyl-4-[2-(4-methyl-4-oxidopiperazin-1-yl)ethoxy]phenyl}-6-(furan-2-yl)thieno[2,3-d]pyrimidin-4-yl]oxy}-3-(2-methoxyphenyl)propanoic acid] | 9.3e-09 M | –
COc1ccccc1CC(Oc1ncnc2sc(-c3ccco3)c(-c3ccc(OCC[N+]4([O-])CC[N+](C)([O-])CC4)c(Cl)c3C)c12)C(=O)O [Example 297, (2R)-2-{[(5Sa)-5-{3-chloro-2-methyl-4-[2-(4-methyl-1,4-dioxidopiperazin-1-yl)ethoxy]phenyl}-6-(furan-2-yl)thieno[2,3-d]pyrimidin-4-yl]oxy}-3-(2-methoxyphenyl)propanoic acid] | 6.6e-09 M | –
COc1ccccc1CC(Oc1ncnc2sc(-c3ccco3)c(-c3ccc(OCC4CNCCO4)c(Cl)c3C)c12)C(=O)O [Example 315, (2R)-2-({(5Sa)-5-[3-chloro-2-methyl-4-(morpholin-2-ylmethoxy)phenyl]-6-(furan-2-yl)thieno[2,3-d]pyrimidin-4-yl}oxy)-3-(2-methoxyphenyl)propanoic acid] | 2.2e-08 M | –
COc1ccccc1CC(Oc1ncnc2sc(-c3ccco3)c(-c3ccc(OCCN4CCN(C)C(=O)C4)c(Cl)c3C)c12)C(=O)O [Example 321, (2R)-2-{[(5Sa)-5-{3-chloro-2-methyl-4-[2-(4-methyl-3-oxopiperazin-1-yl)ethoxy]phenyl}-6-(furan-2-yl)thieno[2,3-d]pyrimidin-4-yl]oxy}-3-(2-methoxyphenyl)propanoic acid] | 6e-09 M | –
COc1ccccc1CC(Oc1ncnc2sc(-c3ccco3)c(-c3ccc(OCCN4CCN(CC(N)=O)CC4)c(Cl)c3C)c12)C(=O)O [Example 326, (2R)-2-{[(5Sa)-5-(4-{2-[4-(2-amino-2-oxoethyl)piperazin-1-yl]ethoxy}-3-chloro-2-methylphenyl)-6-(furan-2-yl)thieno[2,3-d]pyrimidin-4-yl]oxy}-3-(2-methoxyphenyl)propanoic acid] | 7.9e-09 M | –
Cc1c(-c2c(-c3ccco3)sc3ncnc(O[C@@H](C(=O)O)c4ccccc4)c23)ccc(OCCN2CCN(C)CC2)c1Cl [Example 339, (2R)-{[(5Ra)-5-{3-chloro-2-methyl-4-[2-(4-methylpiperazin-1-yl)ethoxy]phenyl}-6-(furan-2-yl)thieno[2,3-d]pyrimidin-4-yl]oxy}(phenyl)ethanoic acid] | – | 18.85% @ 10 uM
Cc1c(-c2c(-c3ccco3)sc3ncnc(O[C@H](Cc4ccccc4C(F)(F)F)C(=O)O)c23)ccc(OCCN2CCN(C)CC2)c1Cl [Example 353, (2R)-2-{[(5Sa)-5-{3-chloro-2-methyl-4-[2-(4-methylpiperazin-1-yl)ethoxy]phenyl}-6-(furan-2-yl)thieno[2,3-d]pyrimidin-4-yl]oxy}-3-[2-(trifluoromethyl)phenyl]propanoic acid] | 2.8e-08 M | –
Cc1c(-c2c(-c3ccco3)sc3ncnc(OC(Cc4ccccc4CN)C(=O)O)c23)ccc(OCCN2CCN(C)CC2)c1Cl [Example 355, (2R)-3-[2-(aminomethyl)phenyl]-2-{[(5Sa)-5-{3-chloro-2-methyl-4-[2-(4-methylpiperazin-1-yl)ethoxy]phenyl}-6-(furan-2-yl)thieno[2,3-d]pyrimidin-4-yl]oxy}propanoic acid] | 3e-08 M | –
CC(=O)NCc1ccccc1CC(Oc1ncnc2sc(-c3ccco3)c(-c3ccc(OCCN4CCN(C)CC4)c(Cl)c3C)c12)C(=O)O [Example 356, (2R)-3-{2-[(acetylamino)methyl]phenyl}-2-{[(5Sa)-5-{3-chloro-2-methyl-4-[2-(4-methylpiperazin-1-yl)ethoxy]phenyl}-6-(furan-2-yl)thieno[2,3-d]pyrimidin-4-yl]oxy}propanoic acid] | 1.1e-08 M | –

Further lines, results first:

IC50 | percentage fluorescence polarisation inhibition (Mcl-1 FP), partial inhibitors | Structure (SMILES)
6.2e-09 M | – | Cc1c(-c2c(-c3ccco3)sc3ncnc(OC(Cc4ccccc4OCc4cncn4C)C(=O)O)c23)ccc(OCCN2CCN(C)CC2)c1Cl [Example 276, (2R)-2-{[(5Sa)-5-{3-chloro-2-methyl-4-[2-(4-methylpiperazin-1-yl)ethoxy]phenyl}-6-(furan-2-yl)thieno[2,3-d]pyrimidin-4-yl]oxy}-3-{2-[(1-methyl-1H-imidazol-5-yl)methoxy]phenyl}propanoic acid]
8.8e-09 M | – | COc1ccccc1CC(Oc1ncnc2sc(-c3ccco3)c(-c3ccc(OCCN4CCN(C(C)=O)CC4)c(Cl)c3C)c12)C(=O)O [Example 323, (2R)-2-{[(5Sa)-5-{4-[2-(4-acetylpiperazin-1-yl)ethoxy]-3-chloro-2-methylphenyl}-6-(furan-2-yl)thieno[2,3-d]pyrimidin-4-yl]oxy}-3-(2-methoxyphenyl)propanoic acid]
5.2e-08 M | – | COc1ccccc1CC(Oc1ncnc2sc(-c3ccco3)c(-c3ccc(OCCN4CCN(c5ccccc5)CC4)c(Cl)c3C)c12)C(=O)O [Example 325, (2R)-2-{[(5Sa)-5-{3-chloro-2-methyl-4-[2-(4-phenylpiperazin-1-yl)ethoxy]phenyl}-6-(furan-2-yl)thieno[2,3-d]pyrimidin-4-yl]oxy}-3-(2-methoxyphenyl)propanoic acid]
1.5e-08 M | – | COc1ccccc1CC(Oc1ncnc2sc(-c3ccco3)c(-c3ccc(OCCN4CCN(CC(F)(F)F)CC4)c(Cl)c3C)c12)C(=O)O [Example 327, (2R)-2-{[(5Sa)-5-(3-chloro-2-methyl-4-{2-[4-(2,2,2-trifluoroethyl)piperazin-1-yl]ethoxy}phenyl)-6-(furan-2-yl)thieno[2,3-d]pyrimidin-4-yl]oxy}-3-(2-methoxyphenyl)propanoic acid]
1.3e-08 M | – | COc1ccccc1CC(Oc1ncnc2sc(-c3ccco3)c(-c3ccc(OC(=O)CN4CCN(C)CC4)c(Cl)c3C)c12)C(=O)O [Example 332, (2R)-2-{[(5Sa)-5-(3-chloro-2-methyl-4-{[(4-methylpiperazin-1-yl)acetyl]oxy}phenyl)-6-(furan-2-yl)thieno[2,3-d]pyrimidin-4-yl]oxy}-3-(2-methoxyphenyl)propanoic acid]
– | 43.2% @ 10 uM | CCc1c(-c2c(-c3ccco3)sc3ncnc(O[C@H](Cc4ccccc4OC)C(=O)O)c23)ccc(OCCN2CCN(C)CC2)c1Cl [Example 336, (2R)-2-{[(5Ra)-5-{3-chloro-2-ethyl-4-[2-(4-methylpiperazin-1-yl)ethoxy]phenyl}-6-(furan-2-yl)thieno[2,3-d]pyrimidin-4-yl]oxy}-3-(2-methoxyphenyl)propanoic acid]
6.7e-07 M | – | Cc1c(-c2c(-c3ccco3)sc3ncnc(OC(C(=O)O)c4ccccc4)c23)ccc(OCCN2CCN(C)CC2)c1Cl [Example 340, (2R)-{[(5Sa)-5-{3-chloro-2-methyl-4-[2-(4-methylpiperazin-1-yl)ethoxy]phenyl}-6-(furan-2-yl)thieno[2,3-d]pyrimidin-4-yl]oxy}(phenyl)ethanoic acid]
2.8e-08 M | – | Cc1c(-c2c(-c3ccco3)sc3ncnc(OC(Cc4cccc(F)c4F)C(=O)O)c23)ccc(OCCN2CCN(C)CC2)c1Cl [Example 350, (2R)-2-{[(5Sa)-5-{3-chloro-2-methyl-4-[2-(4-methylpiperazin-1-yl)ethoxy]phenyl}-6-(furan-2-yl)thieno[2,3-d]pyrimidin-4-yl]oxy}-3-(2,3-difluorophenyl)propanoic acid]
